This note sets out measurements from patent publication US7671009B2, “Dermopharmaceutically and cosmetically active oligopeptides” (DSM IP Assets B.V., priority 2001, dated 2010).

*: point of attachment. Palmitoyl = CCCCCCCCCCCCCCCC(=O)*

The test system of this assay is Collagen Synthesis Type I+III in Fibroblast Cell Cultures (ATCC CCL110). In words: Stimulation of collagen synthesis type I+III in fibroblast cell cultures, Sirius Red microassay. The format is cell-based. Conditions: 24 hours incubation, control without active = 100%. How it is done: The collagen I and III content in fibroblasts is measured with the Sirius Red microassay. The quantitative determination of collagen is carried out after 24 hours of incubation with the corresponding oligopeptide derivatives. The extracellularly accumulated collagen is determined. Vitamin C and TGF-beta-1 are used as positive controls.
ATCC CCL110 fibroblasts are incubated in culture medium at a density of approx. 125,000 cells/well in 6-well cell culture plates for 2 days (37° C./5% CO2). Afterwards, the medium is discarded and washed twice with PBS, whereupon 1 ml of test medium with corresponding test substances is added. After incubation with test substance under culture conditions (37° C./5% CO2) for further 24 hours, the extracellular collagen is measured with the Sirius Red assay.
After the incubation period, the total volume of test medium (1 ml) is transferred into a flat-bottom 24-well plate and dried overnight at 55° C. The samples are fixed with 1 ml/well of Bouin's fluid for 1 hour at room temperature (RT). The fixing solution is discarded and the plates are washed 2-3 times with water. After drying of the plates, 1 ml of Sirius Red dye reagent is added.
The samples are shaken for 1 hour at RT on a microplate agitator at moderate intensity. Afterwards, the Sirius Red dye reagent is discarded and the plates are washed with 0.01N HCl. The tinted material is dissolved in 0.3 ml of 0.1N NaOH solution and shaken on a microplate agitator for 1 hour at RT.
200 μl of solution is transferred into a flat-bottom 96-well plate and the optical density is measured at 540 nm against 0.1N NaOH solution as the blank.
Culture medium: MEM+10% FCS+100 IU/ml penicillin+0.1 mg/ml streptomycin+1 mM non essential amino acids+1 mM Na-pyruvate+2 mM L-glutamine.
Test medium: DMEM without phenol red (AMIMED)+100 IU/ml penicillin+0.1 mg/ml streptomycin+80 μg/ml beta(β)-aminopropionitrile.
Vitamin C 100 mM (SIGMA A4034) is diluted to 50 μg/ml in the test medium.
Transforming growth factor TGFβ1 1 μg/ml (SIGMA T1654) is diluted to 0.1 ng/ml in the test medium.
The oligopeptide derivatives of the present invention are prepared in a regular concentration of 10 mM and diluted to 50 μM in the test medium.
Sirius Red F3BA dye reagent as the stock solution 1 mg/ml in saturated aqueous picric acid solution. Bouin's fluid: 15 ml of saturated aqueous picric acid solution+5 ml of formaldehyde+1 ml of acetic acid.

“TGFβ1: Transforming growth factor TGFβ1 (SIGMA T1654), positive control [reference compound]”: the “collagen type I + III after 24 hours, Extracellular” value (“collagen type I + III” below) (0.1 ng/ml) is on record as 115%. For the compound “H-Lys-allo-Thr-allo-Thr-Lys-Ser-OH × 3 AcOH”, the “collagen type I + III” value (test substance 50 μM) was 139%.

In the case of “Palm-Lys-Thr-Ser-Lys-Ser-OH (Palmitoyl-KTSKS-OH; SMILES CCCCCCCCCCCCCCCC(=O)N[C@@H](CCCCN)C(=O)N[C@H](C(=O)N[C@@H](CO)C(=O)N[C@@H](CCCCN)C(=O)N[C@@H](CO)C(=O)O)[C@@H](C)O)”, for the setting “test substance 50 μM”, the “collagen type I + III” value was determined as 128%. As for `O=C1O[C@H]([C@@H](O)CO)C(O)=C1O` [Vitamin C, reference compound], for the setting “Vitamin C positive control, diluted to 50 μg/ml in test medium”, the “collagen type I + III” value amounted to 128%. Take H-Lys-Thr-Thr-Dab-Ser-OH × 3 AcOH: the “collagen type I + III” value (test substance 50 μM) worked out at 137%. On to “Lipoyl-Lys (Lipoyl)-Thr-Thr-Lys (Lipoyl)-Ser-OH”, for which, under “test substance 50 μM”, the “collagen type I + III” value is 162%. Take H-Lys-Thr-allo-Thr-Lys-Ser-OH × 3 AcOH: where the note is “test substance 50 μM”, the “collagen type I + III” value stood at 134%. For H-Dab-Ser-OH × 2 TFA, the “collagen type I + III” value (test substance 50 μM) came out at 131%.
